Reference: BindingDB's records for patent US20240018157 (Schrödinger, 2024)

Experiments:
[1] = target: T1, Mucosa-associated lymphoid tissue lymphoma translocation protein 1 (Homo sapiens, UniProt Q9UDY8); assay: MALT1 Protease Assay 1
T1 sequence (Q9UDY8 whole entry): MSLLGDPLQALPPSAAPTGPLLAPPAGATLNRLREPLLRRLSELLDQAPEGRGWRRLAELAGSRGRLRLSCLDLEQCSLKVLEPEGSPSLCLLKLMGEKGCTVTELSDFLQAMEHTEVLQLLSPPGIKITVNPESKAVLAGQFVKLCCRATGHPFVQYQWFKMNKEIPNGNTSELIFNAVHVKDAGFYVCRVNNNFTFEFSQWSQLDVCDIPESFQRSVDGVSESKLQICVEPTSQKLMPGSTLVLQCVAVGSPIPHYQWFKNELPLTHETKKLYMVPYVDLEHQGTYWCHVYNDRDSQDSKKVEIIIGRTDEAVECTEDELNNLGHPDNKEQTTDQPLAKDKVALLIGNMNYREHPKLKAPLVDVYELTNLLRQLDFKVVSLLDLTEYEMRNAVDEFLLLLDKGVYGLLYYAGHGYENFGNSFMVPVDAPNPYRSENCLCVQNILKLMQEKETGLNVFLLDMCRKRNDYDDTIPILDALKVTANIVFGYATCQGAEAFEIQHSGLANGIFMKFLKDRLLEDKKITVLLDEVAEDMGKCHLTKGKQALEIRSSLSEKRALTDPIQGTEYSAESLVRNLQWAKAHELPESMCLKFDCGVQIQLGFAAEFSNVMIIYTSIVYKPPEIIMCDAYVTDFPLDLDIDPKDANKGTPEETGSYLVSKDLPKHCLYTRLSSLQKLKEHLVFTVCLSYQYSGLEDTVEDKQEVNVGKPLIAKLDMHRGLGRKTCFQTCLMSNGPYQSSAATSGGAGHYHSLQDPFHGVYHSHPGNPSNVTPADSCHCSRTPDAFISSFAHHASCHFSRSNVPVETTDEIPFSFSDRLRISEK
Description: The final assay buffer includes 2 nM of MALT1 full-length protein, 50 μM Ac-LRSR-AMC substrate, 50 mM Tris pH 7.5, 600 mM Sodium Citrate, 1 mM DTT, 1 mM EDTA, and 0.05% BSA in 384-well plate format using black microtiter square well plates (Optiplate 384-F, Perkin Elmer). Test compounds were dissolved in 100% DMSO at stock of 10 mM, with final DMSO concentration 0.1%. Test compounds were pre-incubated with MALT1 protein for 2 h at room temperature. Substrate was added after the pre-incubation and fluorescence signal was measured using Envision at excitation 355 nm and emission 460 nm after 8 hr incubation at RT. Increase in the assay signal was linear over this period and proportional with increase in the enzyme content.

[2] = target: T1, Mucosa-associated lymphoid tissue lymphoma translocation protein 1; assay: MALT1 Protease Assay 2
Description: Test compounds were dissolved in 100% DMSO at stock of 10 mM, with final DMSO concentration 0.1%. Test compounds were pre-incubated with MALT1 protein for 2 h at room temperature.

IC50 [1]	IC50 [2]	SMILES
< 10 nM	–	C[C@@]1(C(F)(F)F)CN(C(=O)Nc2cnc(OC(F)F)c(Cl)c2)c2cnc3cc(Cl)nn3c21 [US20240018157, Example 49]
> 1000 nM	100 to 1000 nM	C[C@@]1(C(F)(F)F)CN(C(=O)N[C@@H]2CCCC(F)(F)C2)c2cnc3cc(Cl)nn3c21 [US20240018157, Example 54]
